Data as given in patent US6461856B2 (priority 1999, dated 2002).

Tested on: F420-dependent dehydrogenase (ORF 9)
Format: biochemical, Rhodococcus erythropolis HL PM-1

## O=[N+]([O-])c1ccc(O)c([N+](=O)[O-])c1 [DNP, 2,4-dinitrophenol]
  reduction of the substrate to its Meisenheimer complex upon addition of ORF 9 extract: reduces
